Measured values: ChEMBL document CHEMBL4699547, “Design, synthesis, and multitargeted profiling of N-benzylpyrrolidine derivatives for the treatment of Alzheimer's disease” (Bioorg Med Chem, 2020)
The source made the active and inactive calls. No cut-off for these calls is given here.

How the values were obtained:
[1] = target: T1, Cholinesterase (Homo sapiens, UniProt P06276); assay: Inhibition of human BChE by Ellman's method
[2] = target: Beta-secretase 1 (Homo sapiens, UniProt P56817); assay: Inhibition of human BACE-1 by FRET assay
Sequence of Beta-secretase 1 (P56817 whole entry): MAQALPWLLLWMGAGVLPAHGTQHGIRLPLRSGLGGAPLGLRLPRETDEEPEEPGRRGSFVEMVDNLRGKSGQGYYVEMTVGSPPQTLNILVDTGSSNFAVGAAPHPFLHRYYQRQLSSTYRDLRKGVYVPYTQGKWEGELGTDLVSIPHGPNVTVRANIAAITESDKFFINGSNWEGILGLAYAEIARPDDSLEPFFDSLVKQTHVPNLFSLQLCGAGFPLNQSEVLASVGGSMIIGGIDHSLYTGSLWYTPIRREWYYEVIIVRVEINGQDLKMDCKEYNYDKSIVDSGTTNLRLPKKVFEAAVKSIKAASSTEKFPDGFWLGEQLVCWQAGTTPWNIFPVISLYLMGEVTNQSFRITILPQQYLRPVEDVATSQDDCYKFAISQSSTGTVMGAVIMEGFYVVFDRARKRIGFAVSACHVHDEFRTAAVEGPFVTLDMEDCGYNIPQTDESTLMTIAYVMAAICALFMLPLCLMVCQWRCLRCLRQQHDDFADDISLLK

[3] = target: T2, Acetylcholinesterase (Homo sapiens, UniProt P22303); assay: Inhibition of human AChE by Ellman's method
T2 sequence (P22303 whole entry): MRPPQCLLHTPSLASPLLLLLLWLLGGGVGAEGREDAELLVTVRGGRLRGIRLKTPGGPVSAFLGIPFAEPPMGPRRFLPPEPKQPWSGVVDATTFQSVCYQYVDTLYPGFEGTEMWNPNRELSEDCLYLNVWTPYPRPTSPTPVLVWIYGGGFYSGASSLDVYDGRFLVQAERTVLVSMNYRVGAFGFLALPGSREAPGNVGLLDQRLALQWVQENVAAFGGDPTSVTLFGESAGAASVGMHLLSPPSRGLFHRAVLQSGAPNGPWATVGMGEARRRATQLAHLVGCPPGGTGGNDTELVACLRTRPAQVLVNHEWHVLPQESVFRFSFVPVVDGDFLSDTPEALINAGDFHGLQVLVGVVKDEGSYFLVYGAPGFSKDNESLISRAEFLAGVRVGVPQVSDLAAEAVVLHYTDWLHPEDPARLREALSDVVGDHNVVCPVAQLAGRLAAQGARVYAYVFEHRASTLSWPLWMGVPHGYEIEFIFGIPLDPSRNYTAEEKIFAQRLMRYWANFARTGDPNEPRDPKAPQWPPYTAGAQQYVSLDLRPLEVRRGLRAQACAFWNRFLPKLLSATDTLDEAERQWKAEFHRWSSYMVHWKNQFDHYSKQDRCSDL

[4] = Acute toxicity in Wistar rat assessed as abnormal signs at 175 to 1750 mg/kg, po measured up to 14 days by OCED guideline method; assay type: organism-based; conditions: in vivo, 336 h, dose 175-1750 mg/kg, time <=14 day
[5] = tested on: Rattus norvegicus; assay: Ex vivo inhibition of AChE in brain of scopolamine-induced Wistar rat model of amnesia at 2.5 to 10 mg/kg, po pretreated for 7 days followed by scopolamine challenge using acetylthiocholine iodide as substrate by Ellman's method; assay type: functional, organism-based; conditions: dose mg/kg 2.5-10, time 7.0 day
[6] = tested on: Rattus norvegicus; assay: (§1) Improvement in learning and spatial memory in icv infused amyloid beta (1 to 42)-induced rat model of Alzheimer's disease assessed as increase in number of platform crossing at 10 mg/kg, po administered for 9 consecutive days starting from 7 days post surgery and measured daily for 5 days by Morris water maze test; assay type: functional, organism-based; conditions: time 9.0 day
[7] = tested on: Rattus norvegicus; assay: Cognitive enhancing effect in scopolamine-induced Wistar rat model of amnesia assessed as effect on total arm entries at 10 mg/kg, po pretreated for 7 days followed by scopolamine challenge by Y-maze test; assay type: functional, organism-based; conditions: time 7.0 day
[8] = Tmax in Wistar rat at 10 mg/kg, po measured up to 48 hrs; assay type: ADME, organism-based; conditions: in vivo
[9] = target: T2, Acetylcholinesterase; assay: Mixed type inhibition of human AChE assessed as dissociation constant using varying level acetylthiocholine iodide as substrate by Dixon plot analysis
[10] = tested on: Rattus norvegicus; assay: Cognitive enhancing effect in po dosed scopolamine-induced Wistar rat model of amnesia assessed as increase in spontaneous alteration pretreated for 7 days followed by scopolamine challenge by Y-maze test; assay type: functional, organism-based; conditions: dose mg/kg 5-10, time 7.0 day
[11] = MRT in Wistar rat at 10 mg/kg, po measured up to 48 hrs; assay type: ADME, organism-based; conditions: in vivo
[12] = AUC (0 to 48 hrs) in Wistar rat at 10 mg/kg, po measured up to 48 hrs; assay type: ADME, organism-based; parameters: route oral, dose 10 mg/kg, time <=48; conditions: in vivo
[13] = target: T2, Acetylcholinesterase; assay: Mixed type inhibition of human AChE assessed as increase in Km using varying level acetylthiocholine iodide as substrate by Lineweaver-Burk plot analysis
[14] = tested on: Rattus norvegicus; assay: as §1, with “reduction” for “increase”, “escape latency” for “number of platform crossing”; assay type: functional, organism-based; conditions: time 9.0 day
[15] = tested on: Rattus norvegicus; assay: Cognitive enhancing effect in scopolamine-induced Wistar rat model of amnesia assessed as increase in spontaneous alteration at 10 mg/kg, po pretreated for 7 days followed by scopolamine challenge by Y-maze test; assay type: functional, organism-based; conditions: time 7.0 day
[16] = Permeability of the compound at 25 ug/ml after 18 hrs by PAMPA-BBB assay
[17] = tested on: SH-SY5Y; assay: Neuroprotective activity against amyloid beta (1 to 42)-induced oxidative stress in human SH-SY5Y cells assessed as effect on cell viability at 10 to 80 uM measured after 24 hrs by MTT assay (reference value: 62.1 %); assay type: functional; conditions: dose microM 10-80
[18] = tested on: Rattus norvegicus; assay: Antioxidant activity in scopolamine-induced Wistar rat model of amnesia assessed as increase in SOD level at 2.5 to 10 mg/kg, po pretreated for 7 days followed by scopolamine challenge […]; assay type: functional, organism-based; conditions: dose mg/kg 2.5-10, time 7.0 day
[19] = tested on: Rattus norvegicus; assay: Antioxidant activity in scopolamine-induced Wistar rat model of amnesia assessed as decrease in MDA level at 2.5 to 10 mg/kg, po pretreated for 7 days followed by scopolamine challenge […]; assay type: functional, organism-based; conditions: dose mg/kg 2.5-10, time 7.0 day
[20] = Cmax in Wistar rat at 10 mg/kg, po measured up to 48 hrs; assay type: ADME, organism-based; parameters: route oral, dose 10 mg/kg, time <=48; conditions: in vivo
[21] = target: T2, Acetylcholinesterase; assay: Mixed type inhibition of human AChE assessed as decrease in Vmax using varying level of acetylthiocholine iodide as substrate by Lineweaver-Burk plot analysis
[22] = Acute toxicity in po dosed Wistar rat assessed as maximum tolerated dose by OCED guideline method; assay type: organism-based; conditions: in vivo
[23] = Half life in Wistar rat at 10 mg/kg, po measured up to 48 hrs; assay type: ADME, organism-based; conditions: in vivo
[24] = target: T1, Cholinesterase; assay: Inhibition of BChE (unknown origin)
[25] = tested on: Rattus norvegicus; assay: Cognitive enhancing effect in scopolamine-induced Wistar rat model of amnesia assessed as effect on total arm entries at 5 mg/kg, po pretreated for 7 days followed by scopolamine challenge by Y-maze test; assay type: functional, organism-based; conditions: time 7.0 day
[26] = organism: Rattus norvegicus; conditions: Wistar, dose 5.0 mg/kg, time 7.0 day
[27] = tested on: Rattus norvegicus; assay: Cognitive enhancing effect in scopolamine-induced Wistar rat model of amnesia assessed as effect on total arm entries at 2.5 to 10 mg/kg, po pretreated for 7 days followed by scopolamine challenge by Y-maze test; assay type: functional, organism-based; conditions: dose mg/kg 2.5-10, time 7.0 day
[28] = target: Cholinesterase (Equus caballus, UniProt P81908); assay: Inhibition of equine serum BuChE by Ellman's method
Sequence of Cholinesterase (Equus caballus, UniProt P81908) (P81908 whole entry): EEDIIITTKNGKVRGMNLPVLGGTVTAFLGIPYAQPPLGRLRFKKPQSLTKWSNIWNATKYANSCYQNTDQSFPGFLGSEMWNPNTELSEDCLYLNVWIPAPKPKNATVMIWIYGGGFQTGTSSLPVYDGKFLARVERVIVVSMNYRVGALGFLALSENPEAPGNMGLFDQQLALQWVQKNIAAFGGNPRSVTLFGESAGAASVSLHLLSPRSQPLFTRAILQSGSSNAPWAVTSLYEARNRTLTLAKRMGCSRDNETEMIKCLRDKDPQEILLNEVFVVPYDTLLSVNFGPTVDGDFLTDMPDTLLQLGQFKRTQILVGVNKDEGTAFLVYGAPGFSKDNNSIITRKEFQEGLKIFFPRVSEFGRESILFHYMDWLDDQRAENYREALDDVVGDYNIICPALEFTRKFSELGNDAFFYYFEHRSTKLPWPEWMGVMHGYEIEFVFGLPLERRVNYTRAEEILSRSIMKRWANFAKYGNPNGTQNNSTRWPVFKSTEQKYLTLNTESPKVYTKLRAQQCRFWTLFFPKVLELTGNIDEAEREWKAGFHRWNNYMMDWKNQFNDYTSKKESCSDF

T1 sequence (P06276 whole entry): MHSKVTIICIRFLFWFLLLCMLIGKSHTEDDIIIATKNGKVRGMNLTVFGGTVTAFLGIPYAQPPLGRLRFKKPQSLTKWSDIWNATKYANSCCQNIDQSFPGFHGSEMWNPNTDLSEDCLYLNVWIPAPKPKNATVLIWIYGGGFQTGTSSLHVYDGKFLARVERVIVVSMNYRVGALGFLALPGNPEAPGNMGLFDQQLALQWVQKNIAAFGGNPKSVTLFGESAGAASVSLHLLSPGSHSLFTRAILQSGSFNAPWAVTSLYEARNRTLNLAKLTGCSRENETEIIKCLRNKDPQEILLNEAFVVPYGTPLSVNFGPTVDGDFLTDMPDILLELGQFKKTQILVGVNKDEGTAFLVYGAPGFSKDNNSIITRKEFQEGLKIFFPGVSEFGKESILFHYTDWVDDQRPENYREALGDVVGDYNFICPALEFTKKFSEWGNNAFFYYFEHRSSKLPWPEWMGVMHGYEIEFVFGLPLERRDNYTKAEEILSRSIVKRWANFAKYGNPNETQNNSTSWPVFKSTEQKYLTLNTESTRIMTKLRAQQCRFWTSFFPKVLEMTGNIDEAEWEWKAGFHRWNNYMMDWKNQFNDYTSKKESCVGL

Row | Compound | IC50 [1] [nM] | IC50 [2] [nM] | IC50 [3] [nM] | further results
1 | Oc1ccccc1CNC1CCN(Cc2ccccc2)C1 (stereo not drawn) | 2730 | 2370 | 2260 | 
2 | COc1cc(CNC2CCN(Cc3ccccc3)C2)cc(OC)c1OC (stereo not drawn) | 3220 | 844 | 3130 | 
3 | FC(F)(F)Oc1ccc(CNC2CCN(Cc3ccccc3)C2)cc1 (stereo not drawn) | 82 | 115 | 58 | Activity [4]: Non-Toxic; inhibition [5]: Active; Activity [6]: Active; Activity [7]: inactive; Tmax [8]: 3.3 h; Ki [9]: 23 nM; Activity [10]: Dose-dependent effect; MRT [11]: 22.7 h; AUC(0-t) [12]: 5460 ng·h/mL; inhibition [13]: Active; Activity [14]: Active; Activity [15]: Active; Papp at 18 h, 25 ug/ml [16]: 6.9 ×10⁻⁶ cm/s; Activity [17]: 71.5%; Activity [18]: Active; Activity [19]: Active; Cmax [20]: 272 ng/mL; inhibition [21]: Active; MTD [22]: 750 mg/kg; half-life [23]: 15.7 h
4 | c1ccc(CC2CCCN(CCNC3CCN(Cc4ccccc4)C3)C2)cc1 (stereo not drawn) |  |  |  | IC50 [24]: 1840 nM
5 | COc1cc2c(cc1OC)C(=O)C(CC1CCN(Cc3ccccc3)CC1)C2 (stereo not drawn) |  |  |  | Activity [25]: inactive; inhibition [26]: Active
6 | Clc1ccc(/C=N\C2CCN(Cc3ccccc3)C2)cc1 (stereo not drawn) | 1180 | 1260 | 1240 | 
7 | COc1cccc(CNC2CCN(Cc3ccccc3)C2)c1OC (stereo not drawn) | 5460 | 2860 | 4380 | 
8 | O=[N+]([O-])c1ccc(CNC2CCN(Cc3ccccc3)C2)cc1 (stereo not drawn) | 1360 | 1810 | 741 | 
9 | Brc1ccc(CNC2CCN(Cc3ccccc3)C2)cc1 (stereo not drawn) | 758 | 648 | 133 | Papp at 18 h, 25 ug/ml [16]: 5.1 ×10⁻⁶ cm/s
10 | Oc1ccccc1/C=N\C1CCN(Cc2ccccc2)C1 (stereo not drawn) | 4150 |  | > 10000 | 
11 | Fc1ccc(CNC2CCN(Cc3ccccc3)C2)c(F)c1 (stereo not drawn) | 127 | 97 | 69 | Activity [4]: Non-Toxic; inhibition [5]: Active; Activity [10]: Dose-dependent effect; Activity [15]: Active; Papp at 18 h, 25 ug/ml [16]: 5.8 ×10⁻⁶ cm/s; Activity [17]: 66.8%; Activity [18]: Active; Activity [19]: Active; Activity [27]: inactive; MTD [22]: 1750 mg/kg
12 | Cc1cccc(CNC2CCN(Cc3ccccc3)C2)c1 (stereo not drawn) | 2970 |  | > 10000 | 
13 | FC(F)(F)Oc1ccc(/C=N\C2CCN(Cc3ccccc3)C2)cc1 (stereo not drawn) | 695 | 2090 | 864 | 
14 | COc1cc(/C=N\C2CCN(Cc3ccccc3)C2)cc(OC)c1OC (stereo not drawn) | 3500 | > 10000 | 7790 | 
15 | Oc1ccc(/C=N\C2CCN(Cc3ccccc3)C2)cc1 (stereo not drawn) | 2360 | 4580 | 5630 | 
16 | FC(F)(F)c1ccc(/C=N\C2CCN(Cc3ccccc3)C2)cc1 (stereo not drawn) | 2150 | 683 | 1040 | 
17 | Fc1ccc(/C=N\C2CCN(Cc3ccccc3)C2)cc1 (stereo not drawn) | 1050 | 1960 | 1070 | 

Row | Compound | IC50 [1] [nM] | IC50 [2] [nM] | IC50 [3] [nM] | further results
18 | FC(F)(F)c1ccc(CNC2CCN(Cc3ccccc3)C2)cc1 (stereo not drawn) | 968 | 975 | 128 | Papp at 18 h, 25 ug/ml [16]: 6.3 ×10⁻⁶ cm/s
19 | Fc1ccc(/C=N\C2CCN(Cc3ccccc3)C2)c(F)c1 (stereo not drawn) | 1390 | 2650 | 965 | 
20 | O=[N+]([O-])c1ccc(/C=N\C2CCN(Cc3ccccc3)C2)cc1 (stereo not drawn) | 2350 | 3780 | 2460 | 
21 | c1ccc(CNC2CCN(Cc3ccccc3)C2)cc1 (stereo not drawn) | 1570 | 2420 | 1130 | 
22 | Fc1ccc(CNC2CCN(Cc3ccccc3)C2)cc1 (stereo not drawn) | 791 | 824 | 149 | Papp at 18 h, 25 ug/ml [16]: 4.2 ×10⁻⁶ cm/s
23 | Clc1ccc(CNC2CCN(Cc3ccccc3)C2)cc1 (stereo not drawn) | 265 | 163 | 178 | Papp at 18 h, 25 ug/ml [16]: 4.1 ×10⁻⁶ cm/s
24 | COc1cccc(/C=N\C2CCN(Cc3ccccc3)C2)c1OC (stereo not drawn) | 4270 |  | > 10000 | 
25 | Oc1ccc(/C=N\C2CCN(Cc3ccccc3)C2)c(O)c1 (stereo not drawn) | 3280 | 4430 | 3680 | 
26 | C(=N/C1CCN(Cc2ccccc2)C1)/c1ccccc1 (stereo not drawn) | 2680 | 4380 | 4120 | 
27 | Cc1ccc(/C=N\C2CCN(Cc3ccccc3)C2)cc1 (stereo not drawn) | 4860 |  | > 10000 | 
28 | Cc1cccc(/C=N\C2CCN(Cc3ccccc3)C2)c1 (stereo not drawn) | 5790 |  | > 10000 | 
29 | Oc1ccc(CNC2CCN(Cc3ccccc3)C2)cc1 (stereo not drawn) | 1930 | 968 | 1750 | 
30 | Brc1ccc(/C=N\C2CCN(Cc3ccccc3)C2)cc1 (stereo not drawn) | 1190 | 1750 | 1300 | 
31 | Cc1c(OCc2ccccc2)cccc1N1CCN(CCNC2CCN(Cc3ccccc3)C2)CC1 (stereo not drawn) |  |  |  | IC50 [28]: 7780 nM
32 | Oc1ccc(CNC2CCN(Cc3ccccc3)C2)c(O)c1 (stereo not drawn) | 2690 | 482 | 1520 | 
33 | Cc1ccc(CNC2CCN(Cc3ccccc3)C2)cc1 (stereo not drawn) | 8750 | 2240 | 6390 | 
